Test results taken from patent publication US20120214846A1, “HEXAHYDROCYCLOPENTYL[F]INDAZOLE PYRIDYL ETHANOLS AND DERIVATIVES THEREOF AS SELECTIVE GLUCOCORTICOID RECEPTOR MODULATORS” (MERCK SHARP & DOHME CORP, priority 2009, published 2012).

Experiments:
[1] = tested on: female Sprague-Dawley rats, oxazolone (OX) contact dermatitis; test: In Vivo Inflammation Assay (oxazolone contact dermatitis model); parameters: key to Inflammation Assay Glucose Effect / GL *: +: the glucose level increased compared to vehicle; −: the glucose level decreased compared to vehicle; conditions: Table 4, literature compounds
Protocol: In Vivo Inflammation Assay
Intact adult (6 month old) female Sprague-Dawley rats are used in the oxazolone (OX) contactdermatitis model. Rats were sensitized on the ventral abdomen with OX on Day 0. On Days 7 and 9, a randomly-selected ear was challenged (same ear each time) with OX; the other was treated with vehicle. Daily treatment begun on Day 7 and continued for 7d with test compounds at different doses and 1.3 mpk 6-methlyprednisolone or 0.1 mpk DEX as positive controls. The thickness of both ears are measured on Days 11 and 14. Necropsy occurred on Day 14. The rat is first weighed, then anesthetized in a CO2 chamber until near death. Approximately 5 ml whole blood is obtained by cardiac puncture. The rat is then examined for certain signs of death and completeness. Tissues are dissected in a highly stylized fashion. Then the following endpoints were evaluated: a) inhibiting ear inflammation induced by oxazalone, b) raising serum insulin, c) reducing serum ACTH, d) reducing spleen weight, e) reducing skin thickness, f) reducing body weight, g) increasing expression of bone-related genes with potential relationship to negative glucocorticoid effects on bone; e) changes in molecular markers that correlate with skin inflammation, skin thinning, muscle atrophy and glucose metabolism in liver. All blood samples were collected between 1330-1530 hours, ˜4-5 hrs after the last compound treatment.
Primary data for this assay are left and right ear thickness. Inter-ear thickness difference (etd) is used for the estimating the level of inflammation and effectiveness of the compounds is determined by their ability to reduce the increase the thickness of the inflamed ear. Back of the rat skin thickness, spleen weight, serum insulin as well as the effects of gcs on the expression of molecular markers in skin inflammation, skin atrophy, muscle atrophy and glucose metabolism in liver are measured. Data are analyzed by anova plus fisher plsd post-hoc test to identify intergroup differences.

Solubility at pH 2 = type: physicochemical; conditions: Table 4, literature compounds

## C[C@]12Cc3cnn(-c4ccc(F)cc4)c3C=C1CCC[C@@H]2[C@@H](O)c1ccc(F)cc1 [Ex. 32 WO 03/086294 A2, reference compound]
[1]; anti-inflammatory effect
  AI*: + (the anti-inflammatory activity was equal to or greater than 40% of the effect generated by the control compound)
[1]; glucose effect
  GL *: +
Solubility at pH 2
  solubility: poor
